We go through one compound from patent publication US20120083471A1, “Novel Compounds, Pharmaceutical Compositions Containing Same, Methods of Use for Same, and Methods for Preparing Same” (priority 2008, published 2012).

The structures appear in SMILES notation.

One experiment deals with T1, mtGPAT1 (Mus musculus, UniProt Q61586).
T1 construct: from tissue; host or cells: mitochondrial preparation
T1 sequence (Q61586 1-827): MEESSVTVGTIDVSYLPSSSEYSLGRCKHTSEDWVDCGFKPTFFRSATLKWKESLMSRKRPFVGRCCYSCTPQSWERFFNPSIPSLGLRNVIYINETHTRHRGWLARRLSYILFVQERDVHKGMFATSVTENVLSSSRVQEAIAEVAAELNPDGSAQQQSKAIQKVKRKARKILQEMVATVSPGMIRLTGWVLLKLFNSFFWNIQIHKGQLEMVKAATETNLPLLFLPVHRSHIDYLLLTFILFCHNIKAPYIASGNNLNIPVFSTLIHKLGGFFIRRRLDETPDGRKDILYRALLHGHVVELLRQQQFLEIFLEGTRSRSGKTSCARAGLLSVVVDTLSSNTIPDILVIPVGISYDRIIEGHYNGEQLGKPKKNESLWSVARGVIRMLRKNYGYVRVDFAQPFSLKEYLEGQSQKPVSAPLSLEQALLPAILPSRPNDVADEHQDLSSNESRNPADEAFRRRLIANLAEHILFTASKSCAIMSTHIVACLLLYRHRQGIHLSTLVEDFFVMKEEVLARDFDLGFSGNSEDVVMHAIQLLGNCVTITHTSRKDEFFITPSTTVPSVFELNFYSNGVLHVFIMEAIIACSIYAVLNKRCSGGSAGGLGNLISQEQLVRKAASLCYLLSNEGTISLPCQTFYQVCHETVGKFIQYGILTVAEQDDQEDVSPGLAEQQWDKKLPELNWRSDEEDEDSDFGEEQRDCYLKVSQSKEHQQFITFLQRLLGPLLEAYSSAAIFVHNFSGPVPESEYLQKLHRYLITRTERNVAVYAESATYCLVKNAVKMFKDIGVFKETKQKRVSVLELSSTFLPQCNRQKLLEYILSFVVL
As to the kind of experiment: In vitro mtGPAT inhibition: acylation of 14C-glycerol 3-phosphate with palmitoyl-CoA, scintillation counting. It is filed as biochemical. Conditions: Table 2, sulfonamides 15a-i and 17a-f; triplicate; read-out: IC50 (μM) ± SD, In Vitro Anti-mtGPAT1 Activity. Here is the method:
The compounds produced as described above were evaluated for their ability to inhibit the acylation of glycerol-3-phosphate in vitro. The acylation reaction between ^14C-labelled glycerol-3-phosphate and palmitoyl-CoA, initiated by adding mtGPAT, was measured in the presence of varying concentrations of the inhibitor by scintillation counting as described in more detail below.
A mitochondrial preparation of glycerol 3-phosphate acyltransferase was added to the incubation mixture containing ^14C-labeled glycerol 3-phosphate, palmitoyl-CoA, and varying inhibitor concentrations to initiate the reaction. After ten min, the reaction was terminated by adding chloroform, methanol, and 1% perchloric acid. Five minutes later, more chloroform and perchloric acid were added, and the upper aqueous layer was removed. After washing three times with 1% perchloric acid, the organic layer was evaporated under nitrogen, and the amount of ^14C present was counted to determine the extent of reaction inhibition. Data points were recorded in triplicate, and IC50 values were calculated based on the amount of test inhibitor necessary to produce 50% of mtGPAT activity observed in the absence of inhibitor but in the presence of DMSO vehicle control.

Experiment [1] relates to hypothalamic neuropeptide expression. As to the kind of experiment: Real-time RT-PCR of hypothalamic neuropeptides in DIO mice. It is filed as in vivo, mouse. The method, then: For acute studies, 6 DIO or lean mice were treated with a single dose of FSG67 (20 mg/kg, i.p.) approximately 3 hrs past lights-on. Animal weights and food consumption were measured 18 h after treatment. Following euthanization, the hypothalmuses were harvested to measure orexigenic and anorexigenic neuropeptide gene expression. In the chronic studies, DIO mice, 4-10 animals per group, were treated daily with FSG67 (5 mg/kg, i.p.) or with RMPI vehicle for the days indicated. Body weight and food intake were measured daily. In one study, a cohort of mice was pair-fed with amounts consumed by the FSG67-treated animals and mice were monitored with indirect calorimetry (Oxymax Equal Flow System®, Columbus Instruments, Columbus, Ohio). Measurements of VO2 (ml/kg/hr) and VCO2 (ml/kg/hr) were performed and recorded every 15 min. The respiratory exchange ratio (RER) was calculated by Oxymax software, version 5.9, and is defined as ratio of VCO2 to VO2 33. After completion of the treatment course, animals were euthanized by CO2 inhalation 4 hrs following the final dose of FSG67. Tissues were harvested immediately for RNA extraction; serum was collected and analyzed for glucose, cholesterol, and triglyceride measurements (Bioanalytics, Gaithersburg, Md.). Fresh liver tissue was snap frozen in liquid N2, sectioned, and stained with hematoxylin and Oil Red O to visualize triglyceride droplets.
Real-time RT-PCR. Hypothalamus, liver, and WAT of DIO and lean mice were harvested and immediately frozen in liquid nitrogen. Total RNA was isolated and real-time quantitative RT-PCR was performed as previously described (13). Gene-specific primer pairs were designed using Primer3 software (http://www-genome.wi.mit.edu/cgi-bin/primer/primer3_www.cgi/). […]
Acute and chronic FSG67 treatment altered hypothalamic neuropeptide expression. Hypothalamic peptide expression was measured in the lean and DIO mice treated with a single dose of FSG67 (see FIG. 11) and in the chronically treated DIO mice (see FIG. 12) to further asses the mechanism responsible for reduced food intake. […]
In general terms: Quantitative PCR measures a nucleic acid by following its amplification.

The target in a further experiment is T2, mouse mitochondrial GPAT (Mus musculus, UniProt Q61586).
T2 sequence (Q61586 1-827): T1 sequence (Q61586 1-827)
Conditions: reference 12; read-out: reported IC50 for mouse mitochondrial GPAT activity; cited from earlier work.

For `CCCCCCCCCS(=O)(=O)Nc1ccccc1C(=O)O` [Compound 15g, 2-(Nonylsulfonamido)benzoic acid], the figures for the IC50 on mtGPAT1 and at mouse mitochondrial GPAT were 8.1 µM and 24.7 µM, respectively. The “hypothalamic AGRP, POMC and CART expression” value in experiment [1] (16 d treated) is on record as “unaffected”. The “hypothalamic NPY expression” value in experiment [1] (16 d treated, vs vehicle controls, listed as FSG67) is recorded as “significant reduction”. In experiment [1] (single dose, vs vehicle controls and food-deprived (data not shown)), the “hypothalamic AGRP expression” value is “significantly increased”.
